Assay [1] has as its target T1, linked-luc in SCP28 cells (Photinus pyralis, UniProt P08659, INS416[…]).
T1 construct: NLuc and CLuc were linked with 3 repeats of GGGS, flanked by the same restriction sites, and inserted into the same vectors; expressed in transfected cells; host or cells: SCP28 cells stably transduced with pRVPTO retroviral vector
The assay is described as follows: Linked-luciferase reporter in living SCP28 cells. The format is cell-based. The note with it: multiple doses, 30 min after treatment. On the procedure:
FIG. 4A, SCP28 cells that stably express split- or linked-luciferase components were treated with multiple doses of C26-A2 or C26-A6. 30 minutes (min) after treatment, culture media was removed and the luciferase activity in the cells was measured. Data represent mean±SEM. n=3 independent experiments.
C26s inhibit breast cancer progression and metastasis. C26-A2 and A6 were picked for the functional test. To this end, it was tested whether C26-A2 and A6 could inhibit breast cancer progression. […] Next, SCP28 breast cancer cells that were engineered to express split- or linked-luciferase reporter were treated with C26-A2 or A6.

Assay [2] concerns the target T2, MTDH-SND1 interaction (Homo sapiens, UniProt Q7KZF4).
T2 construct: endogenous in cells; host or cells: SCP28 cells (lysate)
T2 sequence (Q7KZF4 2-910 limits assumed): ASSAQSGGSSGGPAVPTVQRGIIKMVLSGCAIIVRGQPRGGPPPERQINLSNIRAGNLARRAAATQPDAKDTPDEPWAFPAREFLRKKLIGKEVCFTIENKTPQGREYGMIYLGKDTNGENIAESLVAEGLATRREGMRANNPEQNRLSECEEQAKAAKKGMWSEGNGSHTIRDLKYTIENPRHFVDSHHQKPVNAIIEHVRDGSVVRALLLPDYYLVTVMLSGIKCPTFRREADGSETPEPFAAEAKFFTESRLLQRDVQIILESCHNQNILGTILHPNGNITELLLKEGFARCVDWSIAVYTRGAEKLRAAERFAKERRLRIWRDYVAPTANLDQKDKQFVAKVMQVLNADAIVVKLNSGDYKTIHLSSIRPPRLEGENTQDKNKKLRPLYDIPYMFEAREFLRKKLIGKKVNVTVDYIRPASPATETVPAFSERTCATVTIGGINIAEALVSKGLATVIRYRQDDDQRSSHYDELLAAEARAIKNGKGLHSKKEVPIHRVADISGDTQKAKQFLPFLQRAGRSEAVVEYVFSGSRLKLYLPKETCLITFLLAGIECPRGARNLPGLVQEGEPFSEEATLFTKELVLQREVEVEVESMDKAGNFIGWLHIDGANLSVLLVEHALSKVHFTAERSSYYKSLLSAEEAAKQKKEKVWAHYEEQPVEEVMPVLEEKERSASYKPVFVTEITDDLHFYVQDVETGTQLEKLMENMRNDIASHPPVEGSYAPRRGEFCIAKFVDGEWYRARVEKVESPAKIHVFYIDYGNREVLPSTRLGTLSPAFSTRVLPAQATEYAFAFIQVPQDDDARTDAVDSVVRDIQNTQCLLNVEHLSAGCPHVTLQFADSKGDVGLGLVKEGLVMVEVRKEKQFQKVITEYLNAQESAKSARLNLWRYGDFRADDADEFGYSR
In words: Co-immunoprecipitation (Co-IP) in SCP28 lysates with anti-MTDH antibody, Western blot for SND1. The format is binding. To be noted: 500 μM, SCP28 lysate. On the procedure:
FIG. 3F, SCP28 cells grown confluent in each 10-cm dish were lysed with 1 ml IP lysis buffer. 500 μM of the compounds were added into each 1 ml of the samples and IP lysis buffer with 2 μg of anti-MTDH antibody. Western blot was then performed to detect SND1 that binds to MTDH.
FIG. 10E, Schematic diagram of Co-IP based confirmation of MTDH-SND1 inhibitory compounds (left). SCP28 cells were lysed for IP assay.2 μg of MTDH antibody together with 500 μM of MTDH wild type (Pep-WT) or mutant (Pep-MT) peptides were added into each 1 ml of samples. Red star indicates wild type MTDH peptide competing off SND1 that binds to MTDH.
Co-immunoprecipitation assay (Co-IP), which is a commonly used standard test to determine protein-protein interaction, was next employed to validate the candidates. Lysates of breast cancer cell line SCP28, a single cell-derived subline from the MDA-MB-231 TNBC cell line^25, was immunoprecipitated with anti-MTDH antibody alone or together with inhibitors (FIG. 3F and FIG. 10E). The samples were then incubated with Protein-A/G beads to pull down MTDH, followed by Western blot analysis to detect SND1. […] Using multiple screening and validation platforms, two classes of compounds, C26s and C32s, were obtained that inhibit MTDH-SND1 interaction.
Immunoprecipitation (IP) and western blotting (WB) analysis. For IP experiment, samples were prepared as previously described^32. 100 μl of the supernatant was transferred to a new tube as input, and the rest was incubated with 2 μg of IgG, anti-Myc (Santa Cruz, SC-40), or anti-MTDH (ThermoFisher, 40-6500) (as indicated in each experiment) overnight at 4° C. (small chemical compounds may be added at this step as indicated in each experiment). The rest standard IP procedures were performed as previously noted^32. […]

T1 sequence (P08659 with tags, fused parts or gaps INS416[withheld]): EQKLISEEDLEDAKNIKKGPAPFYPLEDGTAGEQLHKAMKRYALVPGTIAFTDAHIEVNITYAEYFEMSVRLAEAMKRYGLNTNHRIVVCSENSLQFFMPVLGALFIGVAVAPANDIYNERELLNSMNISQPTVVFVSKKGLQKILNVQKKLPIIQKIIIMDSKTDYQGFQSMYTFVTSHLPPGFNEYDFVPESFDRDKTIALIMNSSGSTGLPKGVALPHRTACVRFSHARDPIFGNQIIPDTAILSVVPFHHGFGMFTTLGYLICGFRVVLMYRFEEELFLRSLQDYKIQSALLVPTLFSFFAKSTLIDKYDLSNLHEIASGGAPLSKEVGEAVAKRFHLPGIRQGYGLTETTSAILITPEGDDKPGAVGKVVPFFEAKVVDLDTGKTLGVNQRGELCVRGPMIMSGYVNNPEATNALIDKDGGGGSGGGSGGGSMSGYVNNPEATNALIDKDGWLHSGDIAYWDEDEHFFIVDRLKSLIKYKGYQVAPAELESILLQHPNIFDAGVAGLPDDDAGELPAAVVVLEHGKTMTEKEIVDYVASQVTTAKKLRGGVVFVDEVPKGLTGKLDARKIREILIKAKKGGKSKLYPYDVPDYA

As for `COc1ccc(Cl)cc1S(=O)(=O)Nc1cccn2ncnc12` [Analog C26-A2], in assay [1], the “linked-luc activity in living cells” value is “without significantly affecting linked-luc activity”. Also, in assay [2], the “MTDH-SND1 interaction (SND1 that binds to MTDH, Co-IP)” value was “strongest inhibitory effects”.

On to `COc1ccc(Cl)cc1S(=O)(=O)Nc1cccn2nc(C)nc12` [Analog C26-A6], for which, in assay [1], the “linked-luc activity in living cells” value is “without significantly affecting linked-luc activity”. Besides, the “MTDH-SND1 interaction (SND1 that binds to MTDH, Co-IP)” value in assay [2] is reported as “strongest inhibitory effects”.

Source of the values: patent publication US20240398767A1, “INHIBITORS OF THE MTDH-SND1 PROTEIN COMPLEX FOR CANCER THERAPY” (The Trustees of Princeton University, priority 2021, published 2024).
